Source: US20210070748A1, “INHIBITORS OF BRUTONS TYROSINE KINASE” (Pharmacyclics LLC, priority 2015, published 2021)

Columns and labels:
[1] = biological target: SRC (Homo sapiens, UniProt P12931); test: Inhibition of a panel of kinases, in vitro HotSpot kinase assay: SRC; format: biochemical; conditions: D-compounds panel data; 1 μM ATP
Protocol: The degree of inhibition of a panel of kinases is determined using the in vitro HotSpot kinase assay (purified enzymes, ^33P-ATP, an appropriate substrate and 1 μM ATP).

[2] = biological target: T1, JAK3 (Homo sapiens, UniProt P52333); test: Inhibition of a panel of kinases, in vitro HotSpot kinase assay: JAK3; format: biochemical; conditions: D-compounds panel data; 1 μM ATP; read-out: IC50 JAK3
T1 sequence (P52333 1-1124): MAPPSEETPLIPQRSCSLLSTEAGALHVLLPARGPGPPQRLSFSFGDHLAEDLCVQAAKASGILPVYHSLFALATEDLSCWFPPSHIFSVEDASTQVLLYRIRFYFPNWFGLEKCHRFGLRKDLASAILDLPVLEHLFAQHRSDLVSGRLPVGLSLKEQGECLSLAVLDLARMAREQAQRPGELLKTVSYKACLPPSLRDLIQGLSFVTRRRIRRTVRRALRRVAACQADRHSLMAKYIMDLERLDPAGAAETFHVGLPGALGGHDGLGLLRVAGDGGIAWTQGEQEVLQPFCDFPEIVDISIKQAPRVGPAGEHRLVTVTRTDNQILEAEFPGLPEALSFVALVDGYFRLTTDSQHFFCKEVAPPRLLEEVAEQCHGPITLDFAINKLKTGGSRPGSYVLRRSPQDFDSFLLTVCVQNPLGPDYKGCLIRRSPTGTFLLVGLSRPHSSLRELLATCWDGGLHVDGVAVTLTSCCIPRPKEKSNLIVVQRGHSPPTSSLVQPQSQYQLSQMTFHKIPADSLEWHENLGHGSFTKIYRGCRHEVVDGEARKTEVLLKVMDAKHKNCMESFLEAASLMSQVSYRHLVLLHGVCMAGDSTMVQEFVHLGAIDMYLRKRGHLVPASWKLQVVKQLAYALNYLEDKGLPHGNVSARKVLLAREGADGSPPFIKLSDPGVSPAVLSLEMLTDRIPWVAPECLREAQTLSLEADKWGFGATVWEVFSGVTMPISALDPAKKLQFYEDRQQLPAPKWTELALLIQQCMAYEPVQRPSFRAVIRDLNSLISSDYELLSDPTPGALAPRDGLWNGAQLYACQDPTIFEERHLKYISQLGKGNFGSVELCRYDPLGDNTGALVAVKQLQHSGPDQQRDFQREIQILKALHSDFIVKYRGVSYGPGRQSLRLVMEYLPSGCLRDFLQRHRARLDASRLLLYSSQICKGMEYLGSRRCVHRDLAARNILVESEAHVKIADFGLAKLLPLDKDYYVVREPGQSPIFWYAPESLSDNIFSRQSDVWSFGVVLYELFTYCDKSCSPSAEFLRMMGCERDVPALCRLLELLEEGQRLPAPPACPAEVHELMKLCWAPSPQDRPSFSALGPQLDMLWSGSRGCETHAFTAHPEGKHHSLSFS

Chain of SRC (P12931 whole entry): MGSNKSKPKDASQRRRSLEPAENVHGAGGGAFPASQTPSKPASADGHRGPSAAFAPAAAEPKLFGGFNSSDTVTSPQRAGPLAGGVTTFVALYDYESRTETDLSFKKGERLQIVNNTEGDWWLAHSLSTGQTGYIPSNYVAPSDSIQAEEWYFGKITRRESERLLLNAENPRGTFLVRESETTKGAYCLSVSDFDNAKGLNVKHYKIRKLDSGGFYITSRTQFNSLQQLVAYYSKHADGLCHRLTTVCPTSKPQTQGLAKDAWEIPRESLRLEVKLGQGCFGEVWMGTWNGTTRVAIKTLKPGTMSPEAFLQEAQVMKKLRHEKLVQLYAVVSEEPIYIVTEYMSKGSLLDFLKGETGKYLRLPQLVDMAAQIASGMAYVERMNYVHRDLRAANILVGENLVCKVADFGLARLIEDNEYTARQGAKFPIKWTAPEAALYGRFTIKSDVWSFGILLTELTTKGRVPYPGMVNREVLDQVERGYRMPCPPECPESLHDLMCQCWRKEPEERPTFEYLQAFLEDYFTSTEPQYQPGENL

Compound	IC50 [1] [nM]	IC50 [2] [nM]
Cc1cc(Nc2nc(N3C[C@H](NC(=O)c4ccc(C5CC5)cc4F)CC[C@@H]3C)cnc2C(N)=O)sn1 [Example D-181, 5-[(2S,5R)-5-(4-cyclopropyl-2-fluorobenzamido)-2-methylpiperidin-1-yl]-3-[(3-methyl-1,2-thiazol-5-yl)amino]pyrazine-2-carboxamide]	10 to 100	100 to 1000
Cc1cc(Nc2nc(N3CCC[C@@H](c4ncc(-c5ccc(C6CC6)cc5)[nH]4)[C@H]3C)cnc2C(N)=O)sn1 [Example D-186, 5-[(2R,3R)-3-[5-(4-cyclopropylphenyl)-1H-imidazol-2-yl]-2-methylpiperidin-1-yl]-3-[(3-methyl-1,2-thiazol-5-yl)amino]pyrazine-2-carboxamide]	100 to 1000	1000 to 10000
CN1CCN(C(=O)c2ccc(Nc3nc(N4CCC[C@@H](n5ccc6cc(C7CC7)ccc6c5=O)C4)cnc3C(N)=O)cc2)CC1 [Example D-169, 5-[(3R)-3-(6-cyclopropyl-1-oxo-1,2-dihydroisoquinolin-2-yl)piperidin-1-yl]-3-{[4-(4-methylpiperazine-1-carbonyl)phenyl]amino}pyrazine-2-carboxamide]	100 to 1000	100 to 1000
Cn1cc(Nc2nc(N3C[C@@H](NC(=O)c4ccc(C5CC5)cc4)CC(F)(F)C3)cnc2C(N)=O)cn1 [Example D-189, 5-[(5S)-5-(4-cyclopropylbenzamido)-3,3-difluoropiperidin-1-yl]-3-[(1-methyl-1H-pyrazol-4-yl)amino]pyrazine-2-carboxamide]	> 10000	1000 to 10000
C[C@@H]1[C@H](NC(=O)c2ccc(C3CC3)cc2F)CCCN1c1cnc(C(N)=O)c(Nc2cc(CN3CCOCC3)ns2)n1 [Example D-173, 5-[(2R,3R)-3-(4-cyclopropyl-2-fluorobenzamido)-2-methylpiperidin-1-yl]-3-{[3-(morpholin-4-ylmethyl)-1,2-thiazol-5-yl]amino}pyrazine-2-carboxamide]	10 to 100	100 to 1000
C[C@@H]1[C@H](NC(=O)c2ncc(C3CC3)cn2)CCCN1c1cnc(C(N)=O)c(Nc2cnn(C)c2)n1 [Example D-198, 5-[(2R,3R)-3-(5-cyclopropylpyrimidine-2-amido)-2-methylpiperidin-1-yl]-3-[(1-methyl-1H-pyrazol-4-yl)amino]pyrazine-2-carboxamide]	10 to 100	100 to 1000
C[C@@H]1[C@H](NC(=O)N(C)C)CCCN1c1cnc(C(N)=O)c(Nc2ccc(N3CCN(C)CC3)cn2)n1 [Example D-180, 5-[(2R,3R)-3-[(dimethylcarbamoyl)amino]-2-methylpiperidin-1-yl]-3-{[5-(4-methylpiperazin-1-yl)pyridin-2-yl]amino}pyrazine-2-carboxamide]	> 10000	> 10000

Results, then the molecule that gave them:

IC50 [1] [nM]	IC50 [2] [nM]	Compound
10 to 100	1000 to 10000	C[C@@H]1[C@H](NC(=O)c2ccc3c(c2)OCCO3)CCCN1c1cnc(C(N)=O)c(Nc2cnn(C)c2)n1 [Example D-224, 5-[(2R,3R)-3-(2,3-dihydro-1,4-benzodioxine-6-amido)-2-methylpiperidin-1-yl]-3-[(1-methyl-1H-pyrazol-4-yl)amino]pyrazine-2-carboxamide]
100 to 1000	> 10000	C[C@@H]1[C@H](NC(=O)c2ccc(C3CC3)cc2)CCCN1c1cnc(C(N)=O)c(Nc2cnn(CC(C)(C)O)c2)n1 [Example D-215, 5-[(2R,3R)-3-(4-cyclopropylbenzamido)-2-methylpiperidin-1-yl]-3-{[1-(2-hydroxy-2-methylpropyl)-1H-pyrazol-4-yl]amino}pyrazine-2-carboxamide]
10 to 100	1000 to 10000	C[C@@H]1[C@H](NC(=O)c2ccc(C3CC3)nc2)CCCN1c1cnc(C(N)=O)c(Nc2ccc(N3CCN(C)CC3)cc2)n1 [Example D-203, 5-[(2R,3R)-3-(6-cyclopropylpyridine-3-amido)-2-methylpiperidin-1-yl]-3-{[4-(4-methylpiperazin-1-yl)phenyl]amino}pyrazine-2-carboxamide]
10 to 100	1000 to 10000	C[C@@H]1[C@H](NC(=O)c2ccc(C(C)(O)C(F)(F)F)cc2)CCCN1c1cnc(C(N)=O)c(Nc2cnn(C)c2)n1 (single isomer, unassigned) [Example D-213]
10 to 100	1000 to 10000	C[C@@H]1[C@H](NC(=O)c2ccc(C3(C)COC3)cc2)CCCN1c1cnc(C(N)=O)c(Nc2cnn(C)c2)n1 [Example D-228, 3-[(1-methyl-1H-pyrazol-4-yl)amino]-5-[(2R,3R)-2-methyl-3-[4-(3-methyloxetan-3-yl)benzamido]piperidin-1-yl]pyrazine-2-carboxamide]
10 to 100	1000 to 10000	C[C@@H]1[C@H](NC(=O)c2ccc(C(C)(O)C(F)(F)F)cc2)CCCN1c1cnc(C(N)=O)c(Nc2cnn(C)c2)n1 (single isomer, unassigned) [Example D-214]
10 to 100	1000 to 10000	CCN(CC)c1ccc(C(=O)N[C@@H]2CCCN(c3cnc(C(N)=O)c(Nc4cnn(C)c4)n3)[C@@H]2C)cc1 [Example D-218, 5-[(2R,3R)-3-[4-(diethylamino)benzamido]-2-methylpiperidin-1-yl]-3-[(1-methyl-1H-pyrazol-4-yl)amino]pyrazine-2-carboxamide]
10 to 100	100 to 1000	C[C@@H]1[C@H](NC(=O)c2ccc3scnc3c2)CCCN1c1cnc(C(N)=O)c(Nc2cnn(C)c2)n1 [Example D-237, N-[(2R,3R)-1-{5-carbamoyl-6-[(1-methyl-1H-pyrazol-4-yl)amino]pyrazin-2-yl}-2-methylpiperidin-3-yl]-1,3-benzothiazole-5-carboxamide]
10 to 100	100 to 1000	C[C@@H]1[C@H](NC(=O)c2ccc(C3(O)CC3)cc2)CCCN1c1cnc(C(N)=O)c(Nc2cnn(C)c2)n1 [Example D-235, 5-[(2R,3R)-3-[4-(1-hydroxycyclopropyl)benzamido]-2-methylpiperidin-1-yl]-3-[(1-methyl-1H-pyrazol-4-yl)amino]pyrazine-2-carboxamide]
